# Legend:
# TLR2:Fc fusion protein = target: T1, TLR2:Fc fusion protein (Homo sapiens, UniProt O60603); assay: SAA-TLR2 interaction, ELISA-like binding assay; details: 0.0625 to 8 μg/ml ligand coated, 2 μg/ml TLR2:Fc
# T1 construct: measured in an ELISA-like assay using a TLR2 extracellular domain:Fc fragment fusion protein; made in house; host or cells: CHO cells (pFuse-Fc vector, InvivoGen), purified from culture supernatant on protein A
# Text: Another example of a method for screening antagonists that disrupt the SAA/TLR2 interaction involves a binding assay that includes a TLR2 ectodomain (extracellular domain) fused to an Fc fragment of immunoglobulin (TLR2:Fc), such as the assay used in FIG. 9B. This assay is typically used as a follow-up or secondary assay to that assay described above. In other words, any compounds collected from the assay described above are subjected to the TLR2:Fc-based binding assay to confirm that the antagonistic effect is on the disruption of SAA-TLR2 binding. This method is generally carried out as follows and is also described in the Examples. A TLR2:Fc fusion protein is generated such that the N-terminal 588 amino acids of human TLR2 are fused in frame to the Fc portion of mouse IgG2a. The cDNA encoding for the resulting chimeric protein is cloned in pFuse-Fc vector (InvivoGen), and stably transfected into CHO cells. […] Absorbance at 450 nm is measured on a SpectraMax 340 plate reader (Molecular Devices).
# Assays for SAA-TLR2 interaction: The TL2:Fc fusion protein was generated such that the N-terminal 588 amino acids of human TLR2 protein were fused in frame with the Fc portion of mouse IgG2a. […] Absorbance at 450 nm was measured on a SpectraMax 340 plate reader (Molecular Devices). […]
# TLR2-HeLa cells = assay: MAP kinase phosphorylation and IκBα degradation in TLR2-HeLa cells (Western blotting); type: cell-based, human; details: mock-transfected HeLa cells, 10 min; SAA 1 μM, Pam3CSK4 1 μg/ml
# Method: FIG. 8 is a series of protein gels and corresponding Western blotting graphs showing that SAA-induced TLR2-dependent signaling in transfected cells. Serum-starved TLR2-HeLa and mock-transfected HeLa cells were stimulated with SAA (1 μM) or Pam3CSK4 (1 μg/ml) for the indicated time. The phosphorylation level of ERK1/2 (A), p38 (B) and JNK (C) was detected by Western blotting using antibodies recognizing the phosphorylated forms of the MAP kinases (blots). (D) The level of cytoplasmic IκB ? was detected by Western blotting using an anti-IκB ? antibody and the β-actin levels in the corresponding samples were shown as loading controls. […] A representative set of data, from 3 repeating experiments, is presented.
# T1 sequence (O60603 21-588 limits assumed): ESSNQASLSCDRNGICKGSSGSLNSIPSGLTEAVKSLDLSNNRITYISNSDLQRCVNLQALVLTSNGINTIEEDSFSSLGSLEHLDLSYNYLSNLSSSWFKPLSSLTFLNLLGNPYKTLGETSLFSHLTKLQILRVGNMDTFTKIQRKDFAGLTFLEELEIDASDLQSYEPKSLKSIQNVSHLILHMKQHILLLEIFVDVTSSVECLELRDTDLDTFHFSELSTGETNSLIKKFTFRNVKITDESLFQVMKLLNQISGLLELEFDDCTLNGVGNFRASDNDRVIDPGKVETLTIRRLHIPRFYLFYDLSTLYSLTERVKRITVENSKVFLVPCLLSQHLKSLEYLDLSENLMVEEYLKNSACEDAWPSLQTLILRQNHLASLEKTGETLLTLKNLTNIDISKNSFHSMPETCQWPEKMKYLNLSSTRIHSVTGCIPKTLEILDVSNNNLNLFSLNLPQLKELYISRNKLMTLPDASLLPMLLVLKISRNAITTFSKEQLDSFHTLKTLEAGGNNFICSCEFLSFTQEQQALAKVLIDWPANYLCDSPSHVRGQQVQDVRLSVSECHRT
substance,measurement,setting,value
Pam3CSK4 [reference compound],binding to TLR2:Fc fusion protein,TLR2:Fc fusion protein,directly bind to the ectodomain
same,ERK1/2 phosphorylation in mock-transfected cells,TLR2-HeLa cells,not

# — patent US7629135B2, “Toll-like receptor agonists and antagonists and methods of use thereof” (The Board of Trustees of the University of Illinois, priority 2006, dated 2009)
